In patent US12466820B2, “Amino quinazoline derivatives as P2X3 inhibitors” (CHIESI FARMACEUTICI S.p.A., priority 2019, dated 2025):

Legend:
h P2X3 = molecular target: T1, h P2X3 (Homo sapiens, UniProt P56373); assay: In vitro electrophysiology assay for P2X3 (automated whole-cell patch clamp, Sophion Qube); assay type: cell-based; details: range of activity
T1 sequence (P56373 1-397): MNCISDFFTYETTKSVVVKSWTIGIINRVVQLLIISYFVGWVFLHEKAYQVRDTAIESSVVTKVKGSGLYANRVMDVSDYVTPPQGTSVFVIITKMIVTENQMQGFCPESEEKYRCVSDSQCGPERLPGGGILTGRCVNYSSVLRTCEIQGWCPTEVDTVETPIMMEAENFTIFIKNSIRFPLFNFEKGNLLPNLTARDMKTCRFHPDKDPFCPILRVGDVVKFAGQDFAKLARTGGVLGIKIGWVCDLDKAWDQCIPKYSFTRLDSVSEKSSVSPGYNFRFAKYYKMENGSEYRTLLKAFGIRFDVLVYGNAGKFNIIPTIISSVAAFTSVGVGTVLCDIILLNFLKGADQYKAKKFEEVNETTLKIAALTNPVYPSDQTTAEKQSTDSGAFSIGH
Experimental: Pharmacological Activity of the Compounds of the Invention In Vitro Electrophysiology Assay for P2X3
(§1) Cells expressing P2X3 receptors were grown according to standard practice and maintained at 37° C. in a 5% humidified CO2 atmosphere. The cells were seeded into T175 flask 2 days prior to the day of the assay and dissociated from the flasks using TrypLE when grown to confluence of 80-90%. The dissociated cells were resuspended in serum free media at a cell density of 3×10^6 cells/ml and loaded onto the Sophion Qube automated patch-clamp system. The extracellular assay buffer contained 145 mM NaCl, 4 mM KCl, 2 mM CaCl2), 1 mM MgCl2, 10 mM HEPES, and 10 mM glucose at pH 7.4. The intracellular assay solution contained 140 mM CsF, 10 mM NaCl, 10 mM EGTA, 10 mM HEPES at pH 7.2. Agonist stock solutions were prepared in H2O and diluted in bath solution prior to use. All antagonists were prepared as 10 mM stock solutions in DMSO and diluted in bath solution prior to use. All experiments were performed under the whole-cell patch clamp configuration at room temperature with 384 individual cells being voltage clamped at −60 mV simultaneously on the Sophion Qube instrument. Two baseline responses were established with the application of α,β-MeATP (800 nM), with the subsequent agonist applications being washed out using extracellular assay buffer containing 0.5 U/ml apyrase. Following the second agonist application, antagonist was incubated in the absence of α,β-MeATP for 10 minutes. After antagonist preincubation, 800 nM α,β-MeATP and antagonist were co-administered to determine the inhibitory effect of the antagonist. One concentration of an antagonist was assessed against a single cell, with different concentrations of the antagonist applied to other cells on the 384 recording substrate. The control P2X3 current amplitude was taken from the peak current amplitude from the second agonist response prior to preincubation with antagonist. The peak P2X3 current amplitude in the presence of antagonist was used to calculate the inhibitory effect at each concentration of the antagonist according to the following equation: […]
(§2) Concentration-response curves were constructed from ten different concentrations with each concentration of antagonist tested on at least two individual cells. The concentration of the antagonist to inhibit P2X3 current by 50% (IC50) was determined by fitting the data with the following equation: […]
(§3) Where ‘a’ is minimum response, ‘b’ is maximum response, ‘c’ is IC50 and ‘d’ is Hill slope.
The results for individual compounds are provided below in Table 6 and are expressed as range of activity.
The activity of the comparative examples A and B have been tested in the in vitro Electrophysiology Assay for P2X3 as described above.

h P2X2/3 = molecular target: T2, h P2X2/3 (Homo sapiens, UniProt P56373+Q9UBL9); assay: In vitro electrophysiology assay for P2X2/3 (same protocol, 10 μM ATP as agonist); assay type: cell-based; details: Table 7, range of activity
T2 sequence (P56373 1-397): T1 sequence (P56373 1-397)
T2 sequence (Q9UBL9 1-471): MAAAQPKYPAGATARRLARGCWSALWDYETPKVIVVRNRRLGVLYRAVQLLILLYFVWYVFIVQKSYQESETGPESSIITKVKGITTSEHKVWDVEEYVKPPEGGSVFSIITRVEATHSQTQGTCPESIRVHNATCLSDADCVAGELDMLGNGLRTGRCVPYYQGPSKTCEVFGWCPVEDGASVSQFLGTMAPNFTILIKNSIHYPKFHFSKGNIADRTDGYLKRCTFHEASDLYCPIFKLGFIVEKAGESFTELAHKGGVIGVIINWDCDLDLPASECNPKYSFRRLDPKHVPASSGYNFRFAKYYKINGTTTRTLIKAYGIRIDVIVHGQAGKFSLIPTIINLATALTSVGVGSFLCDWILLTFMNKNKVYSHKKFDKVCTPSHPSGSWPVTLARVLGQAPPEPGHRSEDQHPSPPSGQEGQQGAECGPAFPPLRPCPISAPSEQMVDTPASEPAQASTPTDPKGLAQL
Experimental: as §1, §2, §3
Representative compound of the present invention have been also tested for P2X2/3 receptor.
The same assay protocol was used for the P2X2/3 assay as the P2X3 assay with two modifications: 1) 10 μM ATP was used as the agonist; and 2) the mean current amplitude was measured seven seconds after the application of agonist.

[1] = Table 6, inhibition of P2X3 current, agonist α,β-MeATP (800 nM)

Row | Compound | IC50 (h P2X3; [1]) | IC50 (h P2X3; Table 7) | IC50 (h P2X2/3)
1 | COc1cc(-c2ccc(C)cn2)cc2c(NCc3nc(C)no3)ncnc12 [Example 142, 8-methoxy-N-[(3-methyl-1,2,4-oxadiazol-5-yl)methyl]-6-(5-methyl-2-pyridyl)quinazolin-4-amine] | < 0.316 µM | < 0.316 µM | 3.16 to 31.6 µM
2 | CNS(=O)(=O)c1cc(-c2ccc(F)cc2)cc2c(N[C@H](C)c3ccc(C)nn3)ncnc12 [Example 19, (R)-6-(4-fluorophenyl)-N-methyl-4-((1-(6-methylpyridazin-3-yl)ethyl)amino)quinazoline-8-sulfonamide] |  |  | 0.316 to 3.16 µM
3 | CNS(=O)(=O)c1cc(-c2ccc(F)cc2)cc2c(N[C@H](C)c3noc(C)n3)ncnc12 [Example 20, (R)-6-(4-fluorophenyl)-N-methyl-4-((1-(5-methyl-1,2,4-oxadiazol-3-yl)ethyl)amino)quinazoline-8-sulfonamide] |  |  | 0.316 to 3.16 µM
4 | Cc1ccc([C@@H](C)Nc2ncnc3c(OC4CCOCC4)cc(-c4ncc(C)s4)cc23)nn1 [Example 33] | < 0.316 µM |  | 
5 | Cc1ccc(-c2cc(OC3CCOCC3)c3ncnc(NC(C)c4nnc(C)s4)c3c2)nc1 (single isomer, unassigned) [Example 84, 6-(5-methyl-2-pyridyl)-N-[1-(5-methyl-1,3,4-thiadiazol-2-yl)ethyl]-8-tetrahydropyran-4-yloxy-quinazolin-4-amine] | < 0.316 µM |  | 
6 | Cc1nnc([C@@H](C)Nc2ncnc3c(S(=O)(=O)N(C)C)cc(-c4ccc(F)cc4)cc23)s1 (stereo in doubt) [Example 12, 6-(4-fluorophenyl)-N,N-dimethyl-4-((1-(5-methyl-1,3,4-thiadiazol-2-yl)ethyl)amino)quinazoline-8-sulfonamide] | < 0.316 µM |  | 
7 | COc1cc(-c2ccc(F)cn2)cc2c(NCc3cc(C)on3)ncnc12 [Example 138, 6-(5-fluoro-2-pyridyl)-8-methoxy-N-[(5-methylisoxazol-3-yl)methyl]quinazolin-4-amine] | 0.316 to 3.16 µM |  | 
8 | COc1cc(-n2cc(F)cn2)cc2c(N[C@H](C)c3ccc(C)nn3)ncnc12 [Example 98, (R)-6-(4-fluoro-1H-pyrazol-1-yl)-8-methoxy-N-(1-(6-methylpyridazin-3-yl)ethyl)quinazolin-4-amine] | 0.316 to 3.16 µM |  | 
9 | COc1cc(-c2ncc(C)s2)cc2c(NCc3ncc(F)cc3F)ncnc12 [Example 118, N-((3,5-difluoropyridin-2-yl)methyl)-8-methoxy-6-(5-methylthiazol-2-yl)quinazolin-4-amine] | < 0.316 µM |  | 
10 | COc1cc(-n2cc(Cl)cn2)cc2c(N[C@H](C)c3cnc(C(F)(F)F)nc3)ncnc12 [Example 104, (R)-6-(4-chloro-1H-pyrazol-1-yl)-8-methoxy-N-(1-(2-(trifluoromethyl)pyrimidin-5-yl)ethyl)quinazolin-4-amine] | < 0.316 µM |  | 
11 | COc1cc(-c2ncc(C)cn2)cc2c(NCc3nc(C)no3)ncnc12 [Example 156, 8-Methoxy-N-((3-methyl-1,2,4-oxadiazol-5-yl)methyl)-6-(5-methylpyrimidin-2-yl)quinazolin-4-amine] | 0.316 to 3.16 µM |  | 
12 | COc1cc(-c2ncc(C)s2)cc2c(NC(C)c3nnc(C)s3)ncnc12 (centres unmarked) [Example 106, 8-methoxy-N-(1-(5-methyl-1,3,4-thiadiazol-2-yl)ethyl)-6-(5-methylthiazol-2-yl)quinazolin-4-amine] | < 0.316 µM |  | 
13 | COc1cc(-c2ncc(C)s2)cc2c(NC(C)c3nnc(C)s3)ncnc12 (single isomer, unassigned) [Example 164, 8-methoxy-N-(1-(5-methyl-1,3,4-thiadiazol-2-yl)ethyl)-6-(5-methylthiazol-2-yl)quinazolin-4-amine] | 0.316 to 3.16 µM |  | 
14 | Cc1ccc(CNc2ncnc3c(OCCO)cc(-c4ncc(C)s4)cc23)nn1 [Example 36, 2-((4-(((6-methylpyridazin-3-yl)methyl)amino)-6-(5-methylthiazol-2-yl)quinazolin-8-yl)oxy)ethan-1-ol] | < 0.316 µM |  | 
15 | COc1cc(-c2ncc(F)cn2)cc2c(NC(C)c3nnc(C)o3)ncnc12 (centres unmarked) [Example 110, 6-(5-fluoropyrimidin-2-yl)-8-methoxy-N-(1-(5-methyl-1,3,4-oxadiazol-2-yl)ethyl)quinazolin-4-amine] | 0.316 to 3.16 µM |  | 
16 | COc1cc(-n2cc(F)cn2)cc2c(N[C@H](C)c3cnc(C(F)(F)F)nc3)ncnc12 [Example 97, (R)-6-(4-fluoro-1H-pyrazol-1-yl)-8-methoxy-N-(1-(2-(trifluoromethyl)pyrimidin-5-yl)ethyl)quinazolin-4-amine] | 0.316 to 3.16 µM |  | 
17 | COc1cc(-c2ncc(C)s2)cc2c(NCc3ccc(F)cn3)ncnc12 [Example 119, N-((5-fluoropyridin-2-yl)methyl)-8-methoxy-6-(5-methylthiazol-2-yl)quinazolin-4-amine] | < 0.316 µM |  | 
18 | COc1cc(-c2ccc(C)cn2)cc2c(NC(C)c3nnc(C)s3)ncnc12 (single isomer, unassigned) [Example 126, 8-methoxy-6-(5-methyl-2-pyridyl)-N-[1-(5-methyl-1,3,4-thiadiazol-2-yl)ethyl]quinazolin-4-amine] | 3.16 to 31.6 µM |  | 
19 | Cc1ccc(CNc2ncnc3c(OC4CCOCC4)cc(-c4ncc(C)s4)cc23)nn1 [Example 38, N-[(6-methylpyridazin-3-yl)methyl]-6-(5-methylthiazol-2-yl)-8-tetrahydropyran-4-yloxy-quinazolin-4-amine] | 0.316 to 3.16 µM |  | 
20 | C[C@@H](Nc1ncnc2c(C3=CCNCC3)cc(-c3ccc(F)cc3)cc12)c1cnc(C(F)(F)F)nc1 [Example 27, (R)-6-(4-fluorophenyl)-8-(1,2,3,6-tetrahydropyridin-4-yl)-N-(1-(2-(trifluoro-methyl)pyrimidin-5-yl)ethyl)quinazolin-4-amine] | < 0.316 µM |  | 
21 | Cc1noc(C(C)Nc2ncnc3c(OC4CCOCC4)cc(-c4ccc(F)cn4)cc23)n1 (single isomer, unassigned) [Example 85, 6-(5-fluoro-2-pyridyl)-N-[1-(3-methyl-1,2,4-oxadiazol-5-yl)ethyl]-8-tetrahydropyran-4-yloxy-quinazolin-4-amine] | < 0.316 µM |  | 
22 | COc1cc(-c2ccc(F)cc2)cc2c(NC(C)c3nc(-c4ccncc4)no3)ncnc12 (single isomer, unassigned) [Example 192, 6-(4-fluorophenyl)-8-methoxy-N-(1-(3-(pyridin-4-yl)-1,2,4-oxadiazol-5-yl)ethyl)quinazolin-4-amine] | 3.16 to 31.6 µM |  | 
23 | COc1cc(-n2ccc(Cl)n2)cc2c(NC(C)c3ccc(C)nn3)ncnc12 (centres unmarked) [Example 96, 6-(3-chloro-1H-pyrazol-1-yl)-8-methoxy-N-(1-(6-methylpyridazin-3-yl)ethyl)quinazolin-4-amine] | 0.316 to 3.16 µM |  | 
24 | Cc1ccc(-c2cc(OC3CCOCC3)c3ncnc(NC(C)c4nnc(C)s4)c3c2)nc1 (single isomer, unassigned) [Example 83, 6-(5-methyl-2-pyridyl)-N-[1-(5-methyl-1,3,4-thiadiazol-2-yl)ethyl]-8-tetrahydropyran-4-yloxy-quinazolin-4-amine] | 0.316 to 3.16 µM |  | 
